Laboratory results as given in patent publication US5741664A, “Subtilisin variants capable of cleaving substrates containing dibasic residues” (priority 1995, dated 1998).
Residues, ends and D or L forms follow the SMILES beside them.

Key:
[1] = biological target: T1, KEX2 (yeast pro-hormone processing protease) (Saccharomyces cerevisiae, UniProt P13134); conditions: KEX2 cleaving Boc-RVRR-MCA; Brenner and Fuller 1992; cited from earlier work
T1 sequence (P13134 114-613 limits assumed): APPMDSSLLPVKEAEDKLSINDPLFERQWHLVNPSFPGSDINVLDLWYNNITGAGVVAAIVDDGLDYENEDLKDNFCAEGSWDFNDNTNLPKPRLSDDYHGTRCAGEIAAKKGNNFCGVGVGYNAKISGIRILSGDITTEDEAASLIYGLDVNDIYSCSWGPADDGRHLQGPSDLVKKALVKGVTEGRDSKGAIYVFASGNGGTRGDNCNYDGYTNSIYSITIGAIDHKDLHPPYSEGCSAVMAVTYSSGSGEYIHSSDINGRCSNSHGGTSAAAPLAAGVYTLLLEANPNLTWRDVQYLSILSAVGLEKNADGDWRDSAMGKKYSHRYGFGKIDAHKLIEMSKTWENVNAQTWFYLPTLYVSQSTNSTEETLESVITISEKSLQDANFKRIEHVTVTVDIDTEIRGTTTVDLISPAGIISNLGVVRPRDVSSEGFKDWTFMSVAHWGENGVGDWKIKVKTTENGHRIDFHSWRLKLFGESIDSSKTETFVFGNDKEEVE

[2] = biological target: T2, Bacillus amyloliquefaciens subtilisin BPN' variant G166D (Bacillus amyloliquefaciens, UniProt P00782, G273D); test: hydrolysis of p-nitroanilide tetrapeptide substrates, initial rates; type: biochemical; conditions: suc-AAPX-pna series; 20 mM Tris-Cl pH 8.2, 4% DMSO, 25 C
T2 construct: made in house; host or cells: Bacillus subtilis BG2036 (secreted, purified from culture supernatant)
Source text: To probe the effects of the G166E and G166D on specificity at the P1 position we used substrates having the form suc-AAPX-pna (SEQ ID NO: 69) where X was either Lys (SEQ ID NO: 58), Arg (SEQ ID NO: 59), Phe (SEQ ID NO: 56), Met (SEQ ID NO: 60) or Gln (SEQ ID NO: 61). Whereas the wild-type enzyme preferred Phe>Met>Lys>Arg>Gln, the G166E preferred Lys~Phe>Arg~Met>Gln, and G166D preferred Lys>Phe~Arg~Met>Gln. Thus, both the acidic substitutions at position 166 caused a shift in preference for basic residues as previously reported (Wells, J. A., Powers, D. B., Bott, R. R., Graycar, T. P. and Estell, D. A. (1987a), Proc. Natl. Acad. Sci. USA 84:1219-1223).
(§1) Subtilisins were assayed by measuring the initial rates of hydrolysis of p-nitroanilide tetrapeptide substrates in 0.4 mL 20 mM Tris-Cl pH 8.2, 4 % (v/v) dimethyl sulfoxide at (25±0.2)° C. as described previously (Estell, D. A., Graycar, T. P., Miller, J. V., Powers, D. B., Burnier, J. P., Ng, P. G. and Wells, J. A. [1986] Science 233:659-663). Enzyme concentrations [E]0 were determined spectrophotometrically using E280 nm 0.1%=1.17 (Matsubara, H.; Kasper, C B.; Brown, D. M.; and Smith, E. L. (1965) J. Biol. Chem.,240:1125-1130.), and were typically 5-50 nM in reactions. Initial rates were determined for nine to twelve different substrate concentrations over the range of 0.001-2.0 mM. […]

[3] = biological target: T3, Bacillus amyloliquefaciens subtilisin BPN' variant N62D/G166D (mature enzyme SEQ ID NO: 72) (Bacillus amyloliquefaciens, UniProt P00782, G273D/N169D); test: as above; type: biochemical; conditions: suc-AAXX-pna series; 20 mM Tris-Cl pH 8.2, 4% DMSO, 25 C
T3 construct: made in house; host or cells: Bacillus subtilis BG2036 (secreted, purified from culture supernatant)
Method: (§2) Despite the less than additive effects seen for the two charged substitutions in the S2 site, we decided to combine the best S2 site variant (N62D) with either of the acidic substitutions in the S1 site. The two double mutants, N62D/G166E and N62D/G166D, were analyzed with substrates having the form, suc-AAXX-pna (SEQ ID NO: 71) where XX was either KK (SEQ ID NO: 66), KR (SEQ ID NO: 67), KF (SEQ ID NO: 62), PK (SEQ ID NO: 58), PF (SEQ ID NO: 56) or AF (SEQ ID NO: 63)(FIG. 4). The wild-type preference was AF>PF~KF>KK~PK>KR, whereas the double mutants had the preference KK>KR>KF>PK~AF>PF. […]
as §1

[4] = biological target: T4, Bacillus amyloliquefaciens subtilisin BPN' variant N62D/G166E (Bacillus amyloliquefaciens, UniProt P00782, G273E/N169D); test: as above; type: biochemical; conditions: suc-AAXX-pna series; 20 mM Tris-Cl pH 8.2, 4% DMSO, 25 C
T4 construct: made in house; host or cells: Bacillus subtilis BG2036 (secreted, purified from culture supernatant)
Method: as §2, §1

[5] = biological target: T5, subtilisin (subtilisin BPN' from Bacillus amyloliquefaciens, wild type) (Bacillus amyloliquefaciens, UniProt P00782); conditions: subtilisin cleaving suc-AAPF-pna; Estell et al. 1986; cited from earlier work
T5 sequence (P00782 108-382): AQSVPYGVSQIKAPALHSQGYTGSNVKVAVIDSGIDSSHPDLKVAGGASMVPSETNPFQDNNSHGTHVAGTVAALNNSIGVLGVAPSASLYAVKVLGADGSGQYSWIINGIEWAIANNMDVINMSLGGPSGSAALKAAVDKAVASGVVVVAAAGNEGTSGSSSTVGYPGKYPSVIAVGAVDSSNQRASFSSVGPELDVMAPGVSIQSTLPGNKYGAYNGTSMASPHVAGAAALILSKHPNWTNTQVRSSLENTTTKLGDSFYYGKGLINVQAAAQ

T3 sequence (P00782 108-382 N169D/G273D): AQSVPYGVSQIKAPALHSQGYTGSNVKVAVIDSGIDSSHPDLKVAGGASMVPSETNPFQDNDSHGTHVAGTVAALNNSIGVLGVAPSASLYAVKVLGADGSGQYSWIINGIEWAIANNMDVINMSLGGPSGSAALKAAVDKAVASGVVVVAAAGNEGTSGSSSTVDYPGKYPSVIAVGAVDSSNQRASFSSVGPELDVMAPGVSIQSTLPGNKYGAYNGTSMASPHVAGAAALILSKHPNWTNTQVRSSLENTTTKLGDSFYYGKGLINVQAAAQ
T4 sequence (P00782 108-382 N169D/G273E): as the sequence (P00782 108-382 N169D/G273D) above, with D166E counted along it
T2 sequence (P00782 108-382 G273D): as the sequence (P00782 108-382 N169D/G273D) above, with D62N counted along it

For `Cc1cc(=O)oc2cc(NC(=O)[C@H](CCCNC(=N)N)NC(=O)[C@H](CCCNC(=N)N)NC(=O)[C@@H](NC(=O)[C@H](CCCNC(=N)N)NC(=O)OC(C)(C)C)C(C)C)ccc12` [Boc-RVRR-MCA, N-t-butoxy carbonyl-arginine-valine-arginine-arginine-7-amido-4-methyl coumarin] (HELM PEPTIDE1{[CC(C)(C)OC(=O)[*:2]].R.V.R.R.[Cc1cc(=O)oc2cc(N[*:1])ccc12]}$$$$V2.0), the kcat/Km [1] is given as 1e+06 M⁻¹ s⁻¹.
In the case of `C[C@H](NC(=O)CCC(=O)O)C(=O)N[C@@H](C)C(=O)N1CCC[C@H]1C(=O)N[C@@H](CCCCN)C(=O)Nc1ccc([N+](=O)[O-])cc1` [Lys P1 substrate] (HELM PEPTIDE1{[O=C(O)CCC(=O)[*:2]].A.A.P.K.[O=[N+]([O-])c1ccc(N[*:1])cc1]}$$$$V2.0), the “ratio of catalytic efficiencies (kcat/Km), Lys P1 substrate versus Phe P1 substrate” value [2] was “about 3 times faster”.
With `C[C@H](NC(=O)CCC(=O)O)C(=O)N[C@@H](C)C(=O)N[C@@H](CCCCN)C(=O)N[C@@H](CCCCN)C(=O)Nc1ccc([N+](=O)[O-])cc1` [Lys-Lys substrate] (HELM PEPTIDE1{[O=C(O)CCC(=O)[*:2]].A.A.K.K.[O=[N+]([O-])c1ccc(N[*:1])cc1]}$$$$V2.0) the “ratio of catalytic efficiencies (kcat/Km), Lys-Lys substrate versus Lys-Phe substrate” value [3] was 18 times faster and the “ratio of catalytic efficiencies (kcat/Km), Lys-Lys substrate versus Lys-Phe substrate” value [4] was “about 8 times faster”.
In the case of `C[C@H](NC(=O)CCC(=O)O)C(=O)N[C@@H](C)C(=O)N1CCC[C@H]1C(=O)N[C@@H](Cc1ccccc1)C(=O)Nc1ccc([N+](=O)[O-])cc1` [suc-AAPF-pna, N-succinyl-alanine-alanine-proline-phenylalanyl-p-nitroanalide] (HELM PEPTIDE1{[O=C(O)CCC(=O)[*:2]].A.A.P.F.[O=[N+]([O-])c1ccc(N[*:1])cc1]}$$$$V2.0), the kcat/Km [5] is listed as 300000 M⁻¹ s⁻¹.
